Assay results taken from PMC12305873, “Chlorinated biscoumarins inhibit chikungunya virus replication in cell-based and animal models” (Emerging Microbes & Infections, 2025).
“Also recorded” adds a separate entry of the source.

Experiments:
[1] = test system: dengue virus NS5 methyltransferase (MTase); parameters: method as in Loeanurit et al., under review; details: targeting the SAM binding site; ref Loeanurit et al., under review; cited from earlier work
[2] = Pharmacokinetic study in mice; details: for AUC / AUC(0-inf) / AUC(0-t) / CL/F / MRT inf / MRT last / Tmax / Cmax / half-life: C57BL/6, mouse, in vivo, po; for AUC / AUC(0-inf) / AUC(0-t) / CL/F / MRT inf / MRT last / Tmax / Cmax / half-life / HL (half-life): 250 mg/kg; for Cmax / half-life / Time within which plasma concentration fell below EC90 and EC50 / AUC_% Extrap_obs / Vz_F_obs / HL (half-life): mice, oral 250 mg/kg; for half-life: HL (half-life)
[3] = Pharmacokinetic study in rats; details: for AUC / AUC(0-inf) / AUC(0-t) / CL/F / MRT inf / MRT last / Cmax / half-life / Tmax / AUC_% Extrap_obs / Vz_F_obs / HL (half-life): rat; for AUC / AUC(0-inf) / AUC(0-t) / CL/F / MRT inf / MRT last / Cmax / half-life / Tmax / HL (half-life): 250 mg/kg; for half-life: HL (half-life)
[4] = test system: CHIKV; experiment: CHIKV plaque assay in Vero cells; details: Chikungunya virus, read-out: EC50, CHIKV inhibition
[5] = biological target: CHIKV nsP1 (Chikungunya virus, UniProt Q8JUX6); experiment: MTase-Glo methyltransferase assay; details: At 50 µM (method: 100 µM), purified CHIKV nsP1
[6] = test system: CHIKV; experiment: CHIKV plaque assay in HEK 293 cells; details: Chikungunya virus, HEK293, read-out: EC50, CHIKV inhibition
[7] = test system: C57BL/6 mice; experiment: Single-dose acute oral toxicity in mice; details: for Activity scores / Kidney histology / Liver (ALT) and kidney (creatinine) biomarkers / Survival and clinical signs over 7 days: single oral dose 250 or 500 mg/kg; for Liver (ALT) and kidney (creatinine) biomarkers: days 1, 3, 7; for Survival and clinical signs over 7 days / Tolerability of a single oral dose: mice; for Liver histology: single oral dose, day 1, also seen in vehicle-treated animals; for Tolerability of a single oral dose: up to 500 mg/kg
[8] = Cytotoxicity by MTS assay in HEK 293 cells; details: human
[9] = test system: CHIKV; experiment: Cell-based anti-attachment assay in Vero cells; details: 10 µM; for CHIKV inhibition, post-incubation or throughout / CHIKV inhibition, pre-treatment, pre-incubation or co-incubation: Vero, MOI 0.1, 24 hpi; for Effect of compound pre-treatment on viral replication: cells treated 1 h before virus
[10] = Cytotoxicity assay alongside the replicon assay; details: hamster
[11] = test system: Sprague Dawley rats; experiment: ALT and Cr levels in rat plasma samples of the PK study; details: single oral 250 mg/kg, plasma at 24, 48, 72 h
[12] = test system: CHIKV; experiment: Time-of-addition and time-of-removal assay in Vero cells; details: 10 µM, MOI 1
[13] = test system: CHIKV; experiment: In vivo anti-CHIKV efficacy, CHIKV-induced arthritis mouse model; details: for PMN infiltration in footpad (H&E), day 1 / PMN infiltration in footpad (H&E), days 2 and 3: compounds single oral 250 mg/kg, ribavirin 50 mg/kg BID IP; for Foot swelling and activity vs vehicle group: single oral 250 mg/kg at 24 h after infection, transient, not significantly different from vehicle
[14] = test system: CHIKV replicon; experiment: CHIKV replicon inhibition assay (Renilla luciferase) in BHK-21 cells; details: Chikungunya virus, BHK-21, 24 h, read-out: EC50, CHIKV replicon inhibition (printed IC50 in Figure 2g,h and b75)
[15] = test system: C57BL/6 mice; experiment: Multiple-dose toxicity in mice; details: for Activity scores / behaviour / Creatinine / Histopathology of liver tissues / Histopathology of renal tissues: compound 3 250 mg/kg oral BID 3 days, ribavirin 50 mg/kg BID I.P.
[16] = Peak plasma concentration (Cmax)
[17] = Sprague Dawley, in vivo, po, Cmax, oral 250 mg/kg, mean ± SD
[18] = Sprague Dawley, in vivo, po, oral 250 mg/kg, mean ± SD
[19] = Sprague Dawley, in vivo, po, Peak plasma concentration (Cmax), rats, oral 250 mg/kg
[20] = Sprague Dawley, in vivo, po, Tmax, oral 250 mg/kg, mean ± SD

CHIKV nsP1, sequence (Q8JUX6 1-535): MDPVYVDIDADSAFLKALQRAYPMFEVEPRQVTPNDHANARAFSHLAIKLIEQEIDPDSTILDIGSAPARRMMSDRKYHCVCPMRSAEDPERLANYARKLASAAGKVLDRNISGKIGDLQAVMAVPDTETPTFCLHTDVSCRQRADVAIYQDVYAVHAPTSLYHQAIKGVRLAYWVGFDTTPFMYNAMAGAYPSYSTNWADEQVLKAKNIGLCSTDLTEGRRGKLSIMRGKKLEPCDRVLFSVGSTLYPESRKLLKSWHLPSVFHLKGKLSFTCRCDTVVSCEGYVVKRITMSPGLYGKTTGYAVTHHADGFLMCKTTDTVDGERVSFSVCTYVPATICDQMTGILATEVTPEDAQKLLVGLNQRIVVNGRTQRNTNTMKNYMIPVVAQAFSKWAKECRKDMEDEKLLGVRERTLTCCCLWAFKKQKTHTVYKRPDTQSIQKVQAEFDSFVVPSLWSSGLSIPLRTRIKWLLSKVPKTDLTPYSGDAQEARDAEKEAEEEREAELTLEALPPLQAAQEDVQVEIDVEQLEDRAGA

O=c1oc2ccccc2c(O)c1C(c1ccc(Cl)cc1)c1c(O)c2ccccc2oc1=O [compound 4, 3,3′-((4-chlorophenyl)methylene)bis(4-hydroxy-2H-chromen-2-one)]
Inhibition of dengue virus NS5 methyltransferase [1]: inhibitors of the dengue virus NS5 methyltransferase (MTase)
AUC [2]: 2750 µg·h/mL
AUC(0-inf) [2]: 2750 ± 927 µg·h/mL
AUC(0-t) [2]: 2750 ± 927 µg·h/mL
CL/F [2]: 1.67 mL/min/kg
MRT inf [2]: 10.1 ± 0.366 h
MRT last [2]: 10.1 ± 0.356 h
Tmax [2]: 6 h
Cmax ([2]; Cmax, mean ± SD): 197 ± 77 µg/mL
half-life ([2]; mean ± SD): 3.42 h
Cmax [2, 16]: 197 µg/mL
Time within which plasma concentration fell below EC90 and EC50 [2]: 24 to 48 h
AUC_% Extrap_obs ([2]; mean ± SD): 0.018 ± 0.014%
Vz_F_obs ([2]; mean ± SD): 0.494 ± 0.200 L/kg
HL (half-life) ([2]; mean ± SD): 3.422 ± 0.419 h
AUC ([3]; Sprague Dawley, in vivo, po): 4180 µg·h/mL
AUC(0-inf) ([3]; Sprague Dawley, in vivo, po): 4440 ± 1730 µg·h/mL
AUC(0-t) ([3]; Sprague Dawley, in vivo, po): 4180 ± 1640 µg·h/mL
CL/F ([3]; Sprague Dawley, in vivo, po): 1.08 mL/min/kg
MRT inf ([3]; Sprague Dawley, in vivo, po): 26.77 ± 0.127 h
MRT last ([3]; Sprague Dawley, in vivo, po): 22.2 ± 0.801 h
Cmax [3, 17]: 133 ± 40.8 µg/mL
half-life [3, 18]: 16.6 h
Cmax [3, 19]: 133 µg/mL
Tmax [3, 20]: 10.7 h
AUC_% Extrap_obs ([3]; oral 250 mg/kg, mean ± SD): 6.119 ± 0.999%
Vz_F_obs ([3]; oral 250 mg/kg, mean ± SD): 1.596 ± 0.946 L/kg
HL (half-life) ([3]; oral 250 mg/kg, mean ± SD): 16.649 ± 1.601 h
Tmax ([3]; oral 250 mg/kg, mean ± SD): 10.667 ± 2.309 h
EC50 [4]: 2.9 ± 0.25 µM
nsP1 methyltransferase enzymatic activity vs DMSO control [5]: significantly inhibited enzymatic activity
EC50 [6]: 4.65 ± 0.56 µM
Activity scores [7]: no significant difference in activity scores
Kidney histology [7]: remained within normal limits
Liver (ALT) and kidney (creatinine) biomarkers [7]: remained within normal limits
Survival and clinical signs over 7 days [7]: All animals survived
Liver histology [7]: Mild, transient hepatocellular vacuolization
Tolerability of a single oral dose [7]: well tolerated
CC50 at 2 days [8]: 44.4 ± 1.48 µM
CHIKV inhibition, post-incubation or throughout [9]: robust antiviral activity was observed
CHIKV inhibition, pre-treatment, pre-incubation or co-incubation [9]: Neither compound exhibited significant inhibition
Effect of compound pre-treatment on viral replication [9]: enhanced the viral replication
CC50 [10]: 79.87 ± 0.4 µM
ALT and Cr levels [11]: within normal limits
Time-of-addition time-points significantly different from DMSO control [12]: 1–6 hpi
Viral titres in time-of-addition (TOA) assay [12]: significantly reduced viral titres when added up to 9 hpi
PMN infiltration in footpad (H&E), day 1 [13]: reduced PMN infiltration on day 1
PMN infiltration in footpad (H&E), days 2 and 3 [13]: PMN infiltration persisting at moderate levels
CHIKV titres in footpad tissues, plaque assay, day 2 post-infection ([13]; single oral 250 mg/kg): significantly reduced CHIKV titres in footpad tissues
Systemic viremia (plasma CHIKV titres, plaque assay) ([13]; single oral 250 mg/kg): no marked reduction in systemic viremia
Foot swelling and activity vs vehicle group [13]: moderate improvement in foot swelling and activity
EC50 [14]: 5.04 ± 0.23 µM

O=c1oc2ccccc2c(O)c1C(c1cccc(Cl)c1)c1c(O)c2ccccc2oc1=O [compound 3, 3,3′-((3-chlorophenyl)methylene)bis(4-hydroxy-2H-chromen-2-one)]
Inhibition of dengue virus NS5 methyltransferase [1]: inhibitors of the dengue virus NS5 methyltransferase (MTase)
AUC [2]: 909 µg·h/mL
AUC(0-inf) [2]: 909 ± 835 µg·h/mL
AUC(0-t) [2]: 909 ± 835 µg·h/mL
CL/F [2]: 18.3 mL/min/kg
MRT inf [2]: 10.6 ± 0.728 h
MRT last [2]: 10.5 ± 0.646 h
Tmax [2]: 10 ± 3.46 h
Cmax ([2]; Cmax, mean ± SD): 68.9 ± 64.1 µg/mL
half-life ([2]; mean ± SD): 4.16 h
Cmax [2, 16]: 68.9 µg/mL
Time within which plasma concentration fell below EC90 and EC50 [2]: 24 to 48 h
AUC_% Extrap_obs ([2]; mean ± SD): 0.124 ± 0.185%
Vz_F_obs ([2]; mean ± SD): 7.963 ± 11.841 L/kg
HL (half-life) ([2]; mean ± SD): 4.163 ± 0.941 h
AUC ([3]; Sprague Dawley, in vivo, po): 1090 µg·h/mL
AUC(0-inf) ([3]; Sprague Dawley, in vivo, po): 1100 ± 633 µg·h/mL
AUC(0-t) ([3]; Sprague Dawley, in vivo, po): 1090 ± 646 µg·h/mL
CL/F ([3]; Sprague Dawley, in vivo, po): 5.65 mL/min/kg
MRT inf ([3]; Sprague Dawley, in vivo, po): 14.5 ± 5.73 h
MRT last ([3]; Sprague Dawley, in vivo, po): 12.9 ± 5.73 h
Cmax [3, 17]: 80.7 ± 39.9 µg/mL
half-life [3, 18]: 7.92 h
Cmax [3, 19]: 80.7 µg/mL
Tmax [3, 20]: 9.33 h
AUC_% Extrap_obs ([3]; oral 250 mg/kg, mean ± SD): 2.128 ± 3.659%
Vz_F_obs ([3]; oral 250 mg/kg, mean ± SD): 5.672 ± 8.054 L/kg
HL (half-life) ([3]; oral 250 mg/kg, mean ± SD): 7.922 ± 6.558 h
Tmax ([3]; oral 250 mg/kg, mean ± SD): 9.333 ± 2.309 h
Time within which plasma concentration fell below EC90 and EC50 ([3]; rats, oral 250 mg/kg): 24 to 48 h
Serum ALT by day 3 vs vehicle and ribavirin groups ([15]; 250 mg/kg oral BID for 3 days): markedly elevated
Activity scores / behaviour [15]: activity scores increased by day 2
Creatinine [15]: remained within normal limits
Histopathology of liver tissues [15]: hepatocellular vacuolization and mononuclear infiltration
Histopathology of renal tissues [15]: proximal tubular edema and vacuolization
EC50 [4]: 2.85 ± 0.42 µM
nsP1 methyltransferase enzymatic activity vs DMSO control [5]: significantly inhibited enzymatic activity
EC50 [6]: 3.08 ± 0.45 µM
Serum ALT on day 1 ([7]; single oral dose 500 mg/kg, not statistically significant, resolved): slight increase
Activity scores [7]: no significant difference in activity scores
Kidney histology [7]: remained within normal limits
Liver (ALT) and kidney (creatinine) biomarkers [7]: remained within normal limits
Survival and clinical signs over 7 days [7]: All animals survived
Liver histology [7]: Mild, transient hepatocellular vacuolization
Tolerability of a single oral dose [7]: well tolerated
CHIKV inhibition, post-incubation or throughout [9]: robust antiviral activity was observed
CHIKV inhibition, pre-treatment, pre-incubation or co-incubation [9]: Neither compound exhibited significant inhibition
Effect of compound pre-treatment on viral replication [9]: enhanced the viral replication
CC50 [10]: 100.5 ± 0.11 µM
ALT and Cr levels [11]: within normal limits
Time-of-addition time-points significantly different from DMSO control [12]: 3–9 hpi
Viral replication in time-of-removal (TOR) assay [12]: viral replication resumed upon compound removal at 12 hpi
Viral titres in time-of-addition (TOA) assay [12]: significantly reduced viral titres when added up to 9 hpi; also recorded: persisted when added as late as 12 hours post-infection
Body weight ([13]; CHIKV-infected mice, single oral 250 mg/kg): greater body weight loss than other groups
PMN infiltration in footpad (H&E), day 1 [13]: reduced PMN infiltration on day 1
PMN infiltration in footpad (H&E), days 2 and 3 [13]: PMN infiltration persisting at moderate levels
CHIKV titres in footpad tissues, plaque assay, day 2 post-infection ([13]; single oral 250 mg/kg): significantly reduced CHIKV titres in footpad tissues
Footpad swelling, tissue viral loads and systemic viremia (discussion summary) ([13]; single oral 250 mg/kg): significantly reduced footpad swelling, viral loads in infected tissues, and systemic viremia
Infectious viral titres in footpad tissue, plaque titration, day 3 ([13]; single oral 250 mg/kg): maintaining efficacy through day 3 howbeit not significantly
Systemic viremia (plasma CHIKV titres, plaque assay) ([13]; single oral 250 mg/kg): no marked reduction in systemic viremia
Viral RNA levels in footpad tissue (RT-qPCR) ([13]; single oral 250 mg/kg): marked reduction by day 3
Foot swelling and activity vs vehicle group [13]: moderate improvement in foot swelling and activity
EC50 [14]: 6.64 ± 0.86 µM

NC(=O)c1ncn([C@@H]2O[C@H](CO)[C@@H](O)[C@H]2O)n1 [ribavirin, Ribavirin, reference compound]
Activity scores / behaviour [15]: maintained normal behaviour and activity
Creatinine [15]: remained within normal limits
Histopathology of liver tissues [15]: No pathological abnormalities were observed
Histopathology of renal tissues [15]: No pathological abnormalities were observed
PMN infiltration in footpad (H&E), day 1 [13]: reduced PMN infiltration on day 1
PMN infiltration in footpad (H&E), days 2 and 3 [13]: PMN infiltration persisting at moderate levels
